Four compounds from patent US7855076B2, “Use of discoidin domain receptor 1 (DDR1) and agents that affect the DDR1/collagen pathway” (The United States of America as represented by the …, priority 2002, dated 2010) can be followed below.

Type in all cases: cell-based, human
In test [1] the test system is THP-1 cells. The experiment in a line: Flow cytometry of HLA-DR, CD11c, CD14, CD40 on PMA-treated THP-1 cells. On the procedure:
FIG. 5 is a graph showing the effects of collagen-activation of two DDR1 isoforms on the expression of CD11c, CD14, and CD40. Each cell line was plated at 5×10^6 cells/ml on either uncoated or collagen-coated plates and incubated at 37° C. for 24 hours in the presence of 10 nM PMA. Anti-1β integrin antibody (10 μg/ml) was used to block the effect of 1β integrin-collagen interaction. The percentage of CD11c, CD14, or CD40-positive cells is shown. Data are presented as the mean ±SD from three independent experiments.
Parental, mock, DDR1a-overexpressing, or DDR1b overexpressing THP-1 cells were plated at 5×10^6 cells/ml on either uncoated or collagen-coated plates and incubated at 37° C. for 24 or 48 hours in the presence of 10 nM PMA. One hundred thousand cells were suspended in 50 μl of cold PBS containing 0.1% NaN3, […] BSA and 200 μg/ml human IgG in a Falcon 2052 tube, and incubated for 10 minutes on ice. One μg of mouse monoclonal antibody against CD11c, CD14 CD40, or HLA-DR, or control mouse IgG were added to each tube and the cells were incubated for another 15 minutes on ice. The cells were washed with PBS, and then incubated with 1 μg of FITC-conjugated goat anti-mouse IgG for 15 minutes on ice. At the end of incubation, propidium iodide (PI) (100 μM) was added to each tube. The cells were washed by PBS, and subsequently analyzed by using a FACS scan (Becton Dickinson). Dead cells, determined by the incorporation of PI, were gated out. Results were processed by using the Cellquest software (Becton Dickinson).
The cells were then rinsed three times with RPMI 1640 containing 10% FCS, and incubated either with the p38 MAP kinase inhibitor SB203580, the MEK (MAP or ERK kinase) ½ inhibitor PD98059, or dimethylsulfoxide (DMSO) for 30 minutes, followed by an additional 12 hour incubation in the presence of 10 nM PMA plus collagen. The expression of HLA-DR was analyzed by flow cytometry.
(In general: A flow cytometer gives signals particle by particle.)

In test [2] the test system is THP-1 cells. The test is described as follows: Cytokine and chemokine release from PMA-treated THP-1 cells by ELISA. The note with it: DDR1b-overexpressing THP-1 cells, PMA, collagen-coated plates, 48 hours. On the procedure: The production of DDR1a- or 1b-overexpressing THP-1 cells was previously described (Kamohara et al., FASEB J. 15:2724, 2001). Briefly, the human monocytic leukemic cell line, THP-1, was transduced with control retrovirus containing the vector only (mock-transduced) or retrovirus expressing DDR1a or DDR1b. THP-1 cells transduced by each virus were selected with G418, and cloned by limiting dilution. The cloned THP-1 cells were maintained in RPMI 1640 medium supplemented with 100 μg/ml gentamycin and 10% FCS (complete medium). Cells were plated at 1×10^6/ml and treated with PMA (10 nM) for variable times on uncoated or collagen-coated tissue culture plates for quantification of cytokine or chemokine release.
In addition, the concentration of MCP-1 in the culture supernatant of each cell line was measured by ELISA. The concentration of MCP-1 was measured in the Lymphokine Testing Laboratory, Clinical Services Program, SAIC-Frederick (Frederick, Md.) by using an enzyme-linked immunosorbent assay (ELISA) kit (R&D Systems, Minneapolis, Minn.) specific for the chemokine.
In addition, the concentrations of IL-1β, IL-8, and MIP-1α in the culture supernatants of each cell line were quantified by ELISA (FIG. 6). The concentration of IL-1β, IL-8, and MIP-1α were measured in the Lymphokine Testing Laboratory, Clinical Services Program, SAIC-Frederick (Frederick, Md.) by using enzyme-linked immunosorbent assay (ELISA) kits (R&D Systems, Minneapolis, Minn.) specific for each human cytokine and chemokine. […]
Background: An ELISA detects its analyte on a solid surface through an enzyme-linked reagent.

Another test relates to DDR1 mRNA. The experiment in a line: DDR1 mRNA expression in PBMC by Northern blotting. The note with it: 8 hours, TNF-α 5 ng/ml, IL-1β 10 ng/ml, IFN-γ 50 U/ml, GM-CSF 10 ng/ml, LPS 1 μg/ml, PHA 5 μg/ml. As to the method:
PMN and PBMC were maintained at a density of 5×10^6 cells/ml in the complete medium in six-well tissue culture cluster (Coster, Cambridge, Mass.; 3 ml/well). Total RNA was extracted from each culture by using TRIZOL® Reagent. PolyA mRNA was purified on Oligotex columns (Qiagen, Valencia, Calif.). Northern blot analysis was performed as described (Yoshimura, J. Immunol. 150:5025, 1993), except that ULTRAhyb (Ambion) was used. A human DDR1 cDNA (757-bp) was obtained by PCR from a U-105 human glioblastoma cell line cDNA library and was ligated into the EcoRI/HindIII site of the pBluescript (Stratagene, La Jolla, Calif.). The sense primer was 5′-[…]-3′ (SEQ ID NO: 2; corresponding to residues between 68 and 87 in the nucleotide sequence of the trkE cDNA, GenBank accession number X74979) and the antisense primer was 5′-[…]-3′ (SEQ ID NO: 3; corresponding to residues between 805 and 824 in the nucleotide sequence of the trkE cDNA).
Freshly isolated PBMC expressed only a low level of DDR1 mRNA. The expression level was increased about eightfold when the cells were incubated in either RPMI 1640 or RPMI 1640 containing 10% FCS.

For a further test, the system named is p38 MAP kinase. The test is described as follows: Phosphorylation of p38 MAP kinase in PMA-treated THP-1 cells, Western blotting. Particulars: DDR1b-overexpressing cells treated before PMA-treatment. As to the method:
Parental, mock, DDR1a- or DDR1b-overexpressing THP-1 cells were plated at 5×10^6/ml on uncoated tissue culture plates and stimulated with PMA (10 nM) for 24 hours, and then starved in RMPI 1640 without FCS for 10 hours. Subsequently cells were washed three times with PBS, and then incubated in the presence of 50 μg/ml collagen type I for various times.
Ten million cells were lysed on ice for 20 minutes in a buffer containing 50 mM NaCl, 20 mM Tris-HCl, 50 mM sodium fluoride, 30 mM Na4P2O7, 5 mM EGTA, 3 mM sodium orthovanadate, 1% Triton X-100, 1 mg/ml leupeptin, 1 mM PMSF, 1 mg/ml aprotinin, 1 mg/ml pepstatinA and 100 μM sodium orthovanadate treated with H2O2. A lysis buffer containing 150 mM NaCl, 50 mM HEPES, 1% Triton-X 10% glycerol, 1 mM sodium fluoride, 1 mM EDTA, 2 mM sodium orthovanadate, 1 mg/ml leupeptin, 1 mM PMSF, 1 mg/ml aprotinin, 1 mg/ml pepstatinA and 100 μM sodium orthovanadate treated with H2O2, was also used for immunoprecipitation with anti-Shc Ab. The lysates were spun in a microcentrifuge for 20 minutes and the supernatants were collected. […]
Eluted proteins were analyzed on 8% polyacrylamide gels by SDS-PAGE and transferred electrophoretically to nitrocellulose membranes at 150 mA for 1 hour by a semi-dry system. […] To detect phosphorylated or nonphosphorylated p38 MAP kinase or ATF-2, 20 μl of cell lysates were directly mixed with 20 μl of sample buffer and then analyzed.
Downstream signaling molecules that may play a role in the up-regulation of HLA-DR in collagen-activated PMA-treated DDR1b-overexpressing cells were identified in the following manner. […] Phosphorylation of p38 MAP kinase was first detected 30 minutes after collagen activation of DDR1b-overexpressing cells and the level of phosphorylation increased thereafter. […] Phosphorylation of p38 MAP kinase was not detected in DDR1a-overexpressing cells up to 120 minutes. […] Phosphorylation of other members of the MAP kinase family, ERK1, ERK2, and JNK could not be detected in collagen-activated PMA-treated DDR1b-overexpressing cells. […]

With `COc1cccc(-c2cc(=O)c3ccccc3o2)c1N` [PD98059], the “expression of HLA-DR” value in the test with THP-1 cells [1] (collagen-activated PMA-treated DDR1b-overexpressing cells, 24 hours) was “no effect”. In addition, in the test with THP-1 cells [2], the “collagen-induced up-regulation of IL-1β release” value is given as “no effect”, the “collagen-induced up-regulation of IL-8 release” value is given as “no effect”, the “collagen-induced up-regulation of MCP-1 release” value is on record as “no effect” and the “collagen-induced up-regulation of MIP-1α release” value is given as “no effect”.

For IL-1β: human recombinant interleukin-1β, the “level of DDR1 mRNA expression” value in the test on DDR1 mRNA is “further augmented”.

Regarding `C[C@@H]1C[C@@H]([C@H](O)CC2CC(=O)NC(=O)C2)C(=O)[C@@H](C)C1` [CHX, cycloheximide, reference compound], the “phosphorylation of p38 MAP kinase in response to collagen” value with p38 MAP kinase is listed as “completely inhibited”.

Take `CCCCCCCCCCCCCC(=O)O[C@@H]1[C@@H](C)[C@@]2(O)[C@@H](C=C(CO)C[C@]3(O)C(=O)C(C)=C[C@@H]23)[C@@H]2C(C)(C)[C@]12OC(C)=O` [PMA, phorbol 12-myristate 13-acetate, reference compound]: the HLA-DR-positive cells in the test with THP-1 cells [1] (parental, mock, DDR1a- or DDR1b-overexpressing THP-1 cells, uncoated plates, 48 hours) was in the range of 26 to 28%.
